Assay results reported in patent publication US9326972B2, “Use of phenylmethimazoles, methimazole derivatives, and tautomeric cyclic thiones for the treatment of autoimmune/inflammatory diseases associated with toll-like receptor overexpression” (Ohio University, priority 2004, dated 2016).

Columns and labels:
[1] = system: Stat1; assay: LPS-induced Stat1 phosphorylation in RAW 264.7 macrophages (immunoblot); format: cell-based, mouse
[2] = system: C57BL/6J mice; assay: LPS-induced endotoxic shock in C57BL/6J mice: survival and signs of shock; format: in vivo, mouse; details: for Survival % of Control: Toxic Shock model, 10 animals, 1.5 days
[3] = system: ICAM-1 and VCAM-1; assay: Histology and ICAM-1/VCAM-1 immunohistochemistry in organs of LPS-treated mice; format: in vivo, mouse
Procedure: Histology: Tissue from liver, lung, kidney and heart from normal, LPS and LPS plus C-10 treated mice (experiment in Table 5), were fixed in 4%-PBS-formalin overnight. They then were dehydrated serially in alcohols 50%-70%-90%-100%, clarified in chloroform, and embedded in paraffin. Five (5) sections were obtained and mounted on Vectabond™ (Vector Laboratories, Inc. Burlingame, Calif.) pretreated slides. The sections were incubated twice (10 minutes each) in xylol and re-hydrated by serial alcohol treatments, 100%-90-70-50, followed by distilled water. Tissues were stained with Hematoxylin-Eosin using standard protocols, mounted, and observed by optical microscopy in a double blind manner.
Immunohistochemistry (IHC): C10 (pMMI) effects on the over-expression of adhesion molecules induced by LPS were studied in different organs. […] At 18 h after LPS injection, mice were sacrificed and the heart, lung, liver spleen and kidney were removed and fixed in 4% formalin in PBS. The tissue was then dehydrated in serial alcohols (50% v/v, twice; 70% v/v, twice; 80% v/v, twice; 95% v/v, twice; and 100% v/v, twice), cleared in pure chloroform, embedded in paraffin and sectioned ([…] thickness) and mounted on Vectabond™ (Vector Laboratories, Inc. Burlingame, Calif.) pre-treated slides. […]

[4] = system: human aortic endothelial cells (HAEC); details: cited from earlier work
[5] = system: HAEC; assay: IFN-β-induced IRF-1 and Stat1 phosphorylation in human aortic endothelial cells (immunoblot); format: cell-based
[6] = system: horses; assay: LPS-induced endotoxemia and endotoxic shock in horses; format: in vivo, horse; details: for Dyspnea and Tachypnea / Lung Auscultation / Toxemia and Vascular Congestion / Toxemia, Vascular Congestion, Cyanosis: C10 2 mg/kg iv pretreatment
[7] = LPS 20 mg/kg i/p, drug i/p 30 min before LPS, 8 mice per group
[8] = LPS 10 μg/kg, C10 (1 mg/kg) iv pretreatment, time 0.15-6 hours

Cn1c(-c2ccccc2)cnc1S [Compound C10, 5-Phenylmethimazole]
LPS induced Stat1 phosphorylation in cytoplasmic and nuclear fractions ([1]; RAW 264.7): reduce
Stat1 serine phosphorylation at residue 727 ([1]; RAW 264.7, LPS 500 ng/mL 3 hours, 0.5 mM C10): reduce
survival / protection from death after LPS injection ([2]; C10 1 mg/kg i/p 30 minutes before LPS 20 mg/kg, 36 hours): 100%
survival (cases) ([2]; C10 0.1 to 1 mg/kg administered 30 min to 12 hours after lethal LPS injection): 100%
duration of survival observed ([2]; C10-treated LPS mice, as long as observed): ≥ 4 weeks
survival ([2]; C10 daily doses of 0.1 or 1 mg/kg, 12 hours after challenge with LPS): 100%
Number of surviving mice, 6 hrs [2, 7]: 8
Number of surviving mice, 12 hrs [2, 7]: 8
Signs of shock at 12 hours, % of Animals ([2]; LPS-challenged mice): 100 % of Animals
prevention of death vs freshly made C10 i.p. in DMSO ([2]; LPS-induced toxic shock, oral excipient-solubilized C10 stored diluted at 4° C. for 8 weeks, 1 mg/kg): as effective
Survival % of Control ([2]; 1 mg/kg, Ip diluted & stored in DMSO 1 wk): 0%
Survival % of Control ([2]; 1 mg/kg, Ip freshly diluted in DMSO): 100%
Survival % of Control ([2]; 1 mg/kg, Oral diluted & stored in excipient 6 wks): 100%
Survival % of Control ([2]; 1 mg/kg, Oral stored in excipient 1 week): 100%
microcirculatory damage and inflammatory cellular infiltration in lung ([3]; H&E, 18 hours): ameliorated
ICAM-1 and VCAM-1 over-expression on endothelial cells (lung, liver) ([3]; immunohistochemistry): suppressed
cytokine-induced HAEC expression of VCAM-1 (protein and mRNA) [4]: strongly inhibits
monocytic cell adhesion to cytokine inflamed HAEC under in vitro flow conditions [4]: inhibits
E-selectin expression ([4]; cytokine-induced, HAEC): modest effect
ICAM-1 expression ([4]; cytokine-induced, HAEC): very little effect
Stat1 serine phosphorylation at residue 727 ([5]; 100 U/mL hIFN-β 2 hours, 1 mM C10): decreased
IFN-β induced Stat1 phosphorylation (Y701) ([5]; 2 hours, C10 1 mM): decrease
IFN-β induction of IRF-1 protein ([5]; 2 hours, C10 1 mM): strongly decreased
symptoms of endotoxemia (hypotension, hypoxemia, collapse, cardiac anoxia, acute renal failure) ([6]; LPS): clearly blocked
Dyspnea and Tachypnea ([6]; LPS 10 μg/kg, 1 week): Normal
Lung Auscultation ([6]; LPS 10 μg/kg, 1 week): Normal
Toxemia and Vascular Congestion ([6]; LPS 10 μg/kg, 1 week): Normal
Toxemia, Vascular Congestion, Cyanosis ([6]; LPS 10 μg/kg, 1 week): Normal
Dyspnea and Tachypnea ([6]; LPS 10 μg/kg, time 0.00 hours): Normal
Lung Auscultation ([6]; LPS 10 μg/kg, time 0.00 hours): Normal
Toxemia and Vascular Congestion ([6]; LPS 10 μg/kg, time 0.00 hours): Normal
Toxemia, Vascular Congestion, Cyanosis ([6]; LPS 10 μg/kg, time 0.00 hours): Normal
Dyspnea and Tachypnea ([6]; LPS 10 μg/kg, time 0.15 hours): Normal
Toxemia, Vascular Congestion, Cyanosis ([6]; LPS 10 μg/kg, time 0.15 hours): Normal
Dyspnea and Tachypnea ([6]; LPS 10 μg/kg, time 0.3 hours): Normal
Lung Auscultation ([6]; LPS 10 μg/kg, time 0.3 hours): Normal
Toxemia and Vascular Congestion ([6]; LPS 10 μg/kg, time 0.3 hours): Weak Congestion
Toxemia, Vascular Congestion, Cyanosis ([6]; LPS 10 μg/kg, time 0.3 hours): Weak Congestion
Dyspnea and Tachypnea ([6]; LPS 10 μg/kg, time 3 hours): Normal
Lung Auscultation ([6]; LPS 10 μg/kg, time 3 hours): Normal
Toxemia and Vascular Congestion ([6]; LPS 10 μg/kg, time 3 hours): Weak Congestion
Toxemia, Vascular Congestion, Cyanosis ([6]; LPS 10 μg/kg, time 3 hours): Weak Congestion
Dyspnea and Tachypnea ([6]; LPS 10 μg/kg, time 24 hours): Normal
Lung Auscultation ([6]; LPS 10 μg/kg, time 24 hours): Normal
Toxemia and Vascular Congestion ([6]; LPS 10 μg/kg, time 24 hours): Normal
Toxemia, Vascular Congestion, Cyanosis ([6]; LPS 10 μg/kg, time 24 hours): Normal
abdominal pain, diarrhea, collapse or prostration ([6]; LPS 10 μg/kg, C10 (1 mg/kg) iv pretreatment, 1 week): normal
abdominal pain, diarrhea, collapse or prostration ([6]; LPS 10 μg/kg, C10 (1 mg/kg) iv pretreatment, time 0 hours): normal
abdominal pain, diarrhea, collapse or prostration [6, 8]: Normal
number of stools [6, 8]: 1 stool
abdominal pain, diarrhea, collapse or prostration ([6]; LPS 10 μg/kg, C10 (1 mg/kg) iv pretreatment, time 24 hours): normal
